Measured values: US20210267203A1, “PESTICIDALLY ACTIVE AZOLE-AMIDE COMPOUNDS” (SYNGENTA PARTICIPATIONS AG, priority 2018, published 2021)

How the values were obtained:
Format in all cases: in vivo
[1] = tested on: Tetranychus urticae (Two-Spotted Spider Mite); assay: Example B11: Tetranychus urticae (two-spotted spider mite), feeding/contact activity; conditions: 192 h, application rate 200 ppm, mixed population (mobile stages), 8 days after infestation
Description: Example B11: Tetranychus urticae (Two-Spotted Spider Mite):Feeding/Contact Activity
Bean leaf discs on agar in 24-well microtiter plates were sprayed with aqueous test solutions prepared from 10,000 ppm DMSO stock solutions. After drying the leaf discs were infested with a mite population of mixed ages. The samples were assessed for mortality on mixed population (mobile stages) 8 days after infestation.

[2] = tested on: Plutella xylostella (Diamond Back Moth); assay: Example B5: Plutella xylostella (diamond back moth), artificial diet, 24-well, eggs; conditions: 192 h, application rate 200 ppm, 8 days after infestation, read-out: effect in at least one of the two categories (mortality or growth inhibition)
Method in brief: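 Artificial diet in 24-well plates treated with aqueous dilutions of 10,000 ppm DMSO stocks, dried, then infested with Plutella eggs. Mortality and growth inhibition scored against untreated samples 8 days after infestation; activity rated at 200 ppm application rate.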

[3] = tested on: Plutella xylostella (Diamondback Moth); assay: Example B14: activity against Plutella xylostella (diamondback moth), 96-well artificial diet; conditions: 216 h, application rate 500 ppm, 9 days after infestation
Method in brief: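 Diet in 96-well plates was treated with aqueous dilutions of 10,000 ppm DMSO stocks, dried, and infested with 30 eggs per well via a netted lid; hatching L1 larvae fed on the diet. Mortality scored 9 days after infestation.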

[4] = tested on: Myzus persicae (Green Peach Aphid); assay: Example B13: activity against Myzus persicae (green peach aphid), 96-well sucrose solution; conditions: 120 h, application rate 50 ppm, 5 days after infestation
Method in brief: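 Compounds, from 10,000 ppm DMSO stocks, mixed into sucrose solution in wells under stretched Parafilm, with aphids placed on the membrane in an inverted feeding setup. Mortality scored 5 days after infestation.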

[5] = tested on: Euschistus heros (Neotropical Brown Stink Bug); assay: Example B2: Euschistus heros (neotropical brown stink bug), soybean leaves sprayed, N2 nymphs; conditions: 120 h, application rate 200 ppm, 5 days after infestation, read-out: effect in at least one of the two categories (mortality or growth inhibition)
Method in brief: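 Soybean leaves on agar sprayed with aqueous test solutions made from 10,000 ppm DMSO stocks, dried, then infested with N2 nymphs. Mortality and growth inhibition scored versus untreated samples 5 days after infestation; activity threshold at 200 ppm.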

[6] = tested on: Myzus persicae (Green Peach Aphid); assay: Example B8: Myzus persicae (green peach aphid), intrinsic activity; conditions: 120 h, test rate 12 ppm, sucrose solution, 24-well, 5 days after infestation
Method in brief: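 Compounds diluted from 10,000 ppm DMSO stock were mixed with sucrose solution under stretched Parafilm in a sachet feeding setup, with aphid-infested pea seedlings placed on the membrane. Mortality was scored 5 days after infestation.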

[7] = tested on: Myzus persicae (Green Peach Aphid); assay: Example B7: Myzus persicae (green peach aphid), systemic activity; conditions: 144 h, test rate 24 ppm, pea seedling roots in test solution, 6 days
Description: Example B7: Myzus persicae (Green Peach Aphid), Systemic Activity
Roots of pea seedlings infested with an aphid population of mixed ages were placed directly into aqueous test solutions prepared from 10,000 DMSO stock solutions. The samples were assessed for mortality 6 days after placing seedlings into test solutions.

[8] = tested on: Frankliniella occidentalis (Western Flower Thrips); assay: Example B3: Frankliniella occidentalis (western flower thrips), feeding/contact activity; conditions: 168 h, application rate 200 ppm, mixed ages, 7 days after infestation
Description: Example B3: Frankliniella occidentalis (Western Flower Thrips):Feeding/Contact Activity
(§1) Sunflower leaf discs were placed on agar in 24-well microtiter plates and sprayed with aqueous test solutions prepared from 10,000 DMSO stock solutions. After drying the leaf discs were infested with a Frankliniella population of mixed ages. The samples were assessed for mortality 7 days after infestation.

[9] = tested on: Spodoptera littoralis (Egyptian Cotton Leaf Worm); assay: Example B10: Spodoptera littoralis (Egyptian cotton leaf worm), uptake by lettuce roots from agar, eggs; conditions: 144 h, test rate 12.5 ppm, lettuce root uptake, 6 days after infestation, read-out: effect in at least one of the three categories (mortality, anti-feeding, or growth inhibition)
Description: Example B10: Spodoptera littoralis (Egyptian Cotton Leaf Worm)
Test compounds were applied by pipette from 10,000 ppm DMSO stock solutions into 24-well plates and mixed with agar. Lettuce seeds were placed onto the agar and the multi well plate was closed by another plate which contained also agar. After 7 days the compound was absorbed by the roots and the lettuce grew into the lid plate. The lettuce leaves were then cut off into the lid plate. Spodoptera eggs were pipetted through a plastic stencil onto a humid gel blotting paper and the lid plate was closed with it. The samples were assessed for mortality, anti-feedant effect and growth inhibition in comparison to untreated samples 6 days after infestation.
The following compounds gave an effect of at least 80% in at least one of the three categories (mortality, anti-feeding, or growth inhibition) at a test rate of 12.5 ppm: […]

[10] = tested on: Diabrotica Balteata (Corn Root Worm); assay: Example B1: Diabrotica balteata (corn root worm), maize sprouts sprayed, L2 larvae; conditions: 96 h, application rate 200 ppm, 4 days after infestation, read-out: effect in at least one of the two categories (mortality or growth inhibition)
Method in brief: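 Maize sprouts on agar sprayed with aqueous dilutions of 10,000 ppm DMSO stocks, dried, then infested with 6–10 L2 larvae per well. Mortality and growth inhibition scored against untreated samples 4 days after infestation; rates of 200 ppm.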

[11] = tested on: Spodoptera littoralis (Egyptian Cotton Leaf Worm); assay: Example B9: Spodoptera littoralis (Egyptian cotton leaf worm), cotton leaf discs sprayed, L1 larvae; conditions: foliar, 72 h, application rate 200 ppm, 3 days after infestation
Method in brief: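 Leaf discs on agar sprayed with aqueous dilutions from 10,000 ppm DMSO stock, dried, then infested with five L1 larvae. Mortality, anti-feeding and growth inhibition scored against untreated samples 3 days after infestation; control counted when any category exceeds untreated.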

[12] = tested on: Chilo suppressalis (Striped Rice Stemborer); assay: Example B4: Chilo suppressalis (striped rice stemborer), artificial diet, L2 larvae; conditions: 144 h, application rate 200 ppm, 6 days after infestation
Method in brief: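 L2 larvae (6-8 per well) placed on artificial diet treated with aqueous test solutions prepared from 10,000 ppm DMSO stocks, after drying. Mortality, anti-feeding and growth inhibition scored against untreated samples 6 days after infestation; control means at least one category exceeds untreated.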

[13] = tested on: Myzus persicae (Green Peach Aphid); assay: Example B6: Myzus persicae (green peach aphid), feeding/contact activity; conditions: 144 h, application rate 200 ppm, 6 days after infestation
Description: Example B6: Myzus persicae (Green Peach Aphid):Feeding/Contact Activity
Sunflower leaf discs were placed onto agar in a 24-well microtiter plate and sprayed with aqueous test solutions prepared from 10,000 ppm DMSO stock solutions. After drying, the leaf discs were infested with an aphid population of mixed ages. The samples were assessed for mortality 6 days after infestation.

[14] = tested on: Thrips tabaci (Onion Thrips); assay: Example B12: Thrips tabaci (onion thrips), feeding/contact activity; conditions: 144 h, application rate 200 ppm, mixed ages, 6 days after infestation
Description: Example B12: Thrips tabaci (Onion Thrips) Feeding/Contact Activity
as §1, with “10,000 ppm” for “10,000”, “thrips” for “Frankliniella”, “6” for “7”

CC(c1ncnn1-c1ncccn1)N(CC1CC1)C(=O)c1cc(C(C)(C)C#N)cc(Cl)n1 (stereo not drawn) [P27, 6-chloro-4-(1-cyano-1-methyl-ethyl)-N-(cyclopropylmethyl)-N-[1-(2-pyrimidin-2-yl-1,2,4-triazol-3-yl)ethyl]pyridine-2-carboxamide]
≥ 80%: mortality at 200 ppm [1] | percent effect (mortality or growth inhibition) at 200 ppm [2] | mortality at 500 ppm [3] | mortality at 50 ppm [4] | percent effect (mortality or growth inhibition) at 200 ppm [5]

CC(c1ncnn1-c1ncccn1)N(CC1CC1)C(=O)c1cc(C(F)(F)F)cc(C2(C(F)(F)F)CC2)c1 (stereo not drawn) [P45, N-(cyclopropylmethyl)-N-[1-(2-pyrimidin-2-yl-1,2,4-triazol-3-yl)ethyl]-3-(trifluoromethyl)-5-[1-(trifluoromethyl)cyclopropyl]benzamide]
≥ 80%: mortality at 12 ppm [6] | mortality at 24 ppm [7] | percent effect (mortality or growth inhibition) at 200 ppm [2] | mortality at 200 ppm [8] | percent effect (mortality, anti-feeding or growth inhibition) at 12.5 ppm [9] | mortality at 500 ppm [3] | percent effect (mortality or growth inhibition) at 200 ppm [10] | mortality at 50 ppm [4] | percent effect (mortality or growth inhibition) at 200 ppm [5] | percent control (mortality, anti-feedant effect or growth inhibition) at 200 ppm [11]

CC(NC(=O)c1cc(-c2cccnc2Cl)cc(C(F)(F)F)c1)c1ncnn1-c1ncccn1 (stereo not drawn) [P62, 3-(2-chloro-3-pyridyl)-N-[1-(2-pyrimidin-2-yl-1,2,4-triazol-3-yl)ethyl]-5-(trifluoromethyl)benzamide]
≥ 80%: mortality at 200 ppm [1]

CC(NC(=O)c1cc(C(F)(F)F)cc(S(C)(=O)=O)c1)c1ncnn1-c1ncccn1 (stereo not drawn) [P64, 3-methylsulfonyl-N-[1-(2-pyrimidin-2-yl-1,2,4-triazol-3-yl)ethyl]-5-(trifluoromethyl)benzamide]
≥ 80%: percent control (mortality, anti-feedant effect or growth inhibition) at 200 ppm [12] | mortality at 200 ppm [13] | mortality at 12 ppm [6] | mortality at 24 ppm [7] | percent effect (mortality or growth inhibition) at 200 ppm [2] | mortality at 200 ppm [8] | percent effect (mortality or growth inhibition) at 200 ppm [10] | mortality at 50 ppm [4] | percent effect (mortality or growth inhibition) at 200 ppm [5] | percent control (mortality, anti-feedant effect or growth inhibition) at 200 ppm [11]

C[C@H](NC(=O)c1cc(C2CC2)cc(C(F)(F)F)c1)c1ncnn1-c1ncccn1 [P72, 3-cyclopropyl-N-[(1S)-1-(2-pyrimidin-2-yl-1,2,4-triazol-3-yl)ethyl]-5-(trifluoromethyl)benzamide]
≥ 80%: percent control (mortality, anti-feedant effect or growth inhibition) at 200 ppm [12] | mortality at 200 ppm [13] | mortality at 12 ppm [6] | percent effect (mortality or growth inhibition) at 200 ppm [2] | mortality at 200 ppm [8] | percent effect (mortality or growth inhibition) at 200 ppm [10] | percent effect (mortality or growth inhibition) at 200 ppm [5] | percent control (mortality, anti-feedant effect or growth inhibition) at 200 ppm [11]

Cc1nc(C(C)NC(=O)c2cc(C(F)(F)F)cc(C3(C#N)CC3)c2)n(-c2ncc(Br)cn2)n1 (stereo not drawn) [P78, N-[1-[2-(5-bromopyrimidin-2-yl)-5-methyl-1,2,4-triazol-3-yl]ethyl]-3-(1-cyanocyclopropyl)-5-(trifluoromethyl)benzamide]
≥ 80%: percent control (mortality, anti-feedant effect or growth inhibition) at 200 ppm [12] | mortality at 12 ppm [6] | percent effect (mortality or growth inhibition) at 200 ppm [2] | mortality at 200 ppm [8] | percent effect (mortality or growth inhibition) at 200 ppm [10] | percent effect (mortality or growth inhibition) at 200 ppm [5] | percent control (mortality, anti-feedant effect or growth inhibition) at 200 ppm [11]

CC(NC(=O)c1cc(C(F)(F)F)cc(C(C)(C)C#N)c1)c1ncnn1-c1ncc(Br)cn1 (stereo not drawn) [P79, N-[1-[2-(5-bromopyrimidin-2-yl)-1,2,4-triazol-3-yl]ethyl]-3-(1-cyano-1-methyl-ethyl)-5-(trifluoromethyl)benzamide]
≥ 80%: percent control (mortality, anti-feedant effect or growth inhibition) at 200 ppm [12] | mortality at 200 ppm [1] | percent effect (mortality or growth inhibition) at 200 ppm [2] | percent effect (mortality or growth inhibition) at 200 ppm [10] | percent effect (mortality or growth inhibition) at 200 ppm [5] | percent control (mortality, anti-feedant effect or growth inhibition) at 200 ppm [11]

CC(NC(=O)c1cc(C(F)(F)F)cc(C2(C#N)CC2)c1)c1ncnn1-c1ncccn1 (stereo not drawn) [P85, 3-(1-cyanocyclopropyl)-N-[1-(2-pyrimidin-2-yl-1,2,4-triazol-3-yl)ethyl]-5-(trifluoromethyl)benzamide]
≥ 80%: percent control (mortality, anti-feedant effect or growth inhibition) at 200 ppm [12] | mortality at 200 ppm [13] | mortality at 12 ppm [6] | percent effect (mortality or growth inhibition) at 200 ppm [2] | mortality at 200 ppm [8] | percent effect (mortality, anti-feeding or growth inhibition) at 12.5 ppm [9] | percent effect (mortality or growth inhibition) at 200 ppm [10] | mortality at 50 ppm [4] | percent effect (mortality or growth inhibition) at 200 ppm [5] | percent control (mortality, anti-feedant effect or growth inhibition) at 200 ppm [11]

CC(c1ncnn1-c1ncccn1)N(CC1CC1)C(=O)c1cc(C(F)(F)F)cc(S(=O)(=O)C(F)(F)F)c1 (stereo not drawn) [P89, N-(cyclopropylmethyl)-N-[1-(2-pyrimidin-2-yl-1,2,4-triazol-3-yl)ethyl]-3-(trifluoromethyl)-5-(trifluoromethylsulfonyl)benzamide]
≥ 80%: percent control (mortality, anti-feedant effect or growth inhibition) at 200 ppm [12] | mortality at 200 ppm [13] | mortality at 12 ppm [6] | mortality at 24 ppm [7] | percent effect (mortality or growth inhibition) at 200 ppm [2] | percent effect (mortality, anti-feeding or growth inhibition) at 12.5 ppm [9] | mortality at 500 ppm [3] | percent effect (mortality or growth inhibition) at 200 ppm [10] | mortality at 50 ppm [4] | percent effect (mortality or growth inhibition) at 200 ppm [5] | mortality at 200 ppm [14] | percent control (mortality, anti-feedant effect or growth inhibition) at 200 ppm [11]
